# Measurements: patent US20260232767A1, “INTERLEUKIN-23 RECEPTOR ANTAGONIST PEPTIDES FOR USE IN THE TREATMENT OF PSORIASIS” (Janssen Pharmaceutica NV, priority 2023, published 2026)
# System: subjects with moderate-to-severe plaque psoriasis
# Assay: Safety, adverse events, Example 2 through Week 56
# Format: in vivo, human
# Text: The LTE safety analysis was based on randomized participants in Example who entered the present long-term extension study and received at least one dose of study intervention (including a partial dose) during the study period.
# [1] = 25 mg QD, Week 16 through Week 56
smiles,measurement,setting,value
"CC(=O)NCCCC[C@@H]1NC(=O)[C@H](Cc2c[nH]c3c(C)cccc23)NC(=O)[C@H]([C@@H](C)O)NC(=O)[C@H](CC(N)=O)NC(=O)[C@@H](NC(C)=O)C(C)(C)SSC(C)(C)[C@@H](C(=O)N[C@@H](Cc2ccc(OCCN)cc2)C(=O)N[C@@H](Cc2ccc3ccccc3c2)C(=O)NC2(C(=O)N[C@@H](CCC(=O)O)C(=O)N[C@@H](CC(N)=O)C(=O)N[C@@H](Cc3cccnc3)C(=O)N(C)CC(N)=O)CCOCC2)NC1=O [IL-23 receptor antagonist peptide, Ac-[Pen]*-N-T-[W(7-Me)]-[Lys(Ac)]-[Pen]*-Phe[4-(2-aminoethoxy)]-[2-Nal]-[THP]-E-N-[3-Pal]-Sarc-NH2 (*[Pen]-[Pen]* formdisulfidebond)]",Ketonuria: number of subjects,"25 mg BID, through Week 56",0
same,Leukocyturia: number of subjects,"25 mg BID, through Week 56",0
same,Leukopenia: number of subjects,"25 mg BID, through Week 56",0
same,Libido decreased: number of subjects,"25 mg BID, through Week 56",0
same,Liver disorder: number of subjects,"25 mg BID, through Week 56",0
same,Lymphopenia: number of subjects,"25 mg BID, through Week 56",0
same,Menopause: number of subjects,"25 mg BID, through Week 56",0
same,Metabolism and nutrition disorders: % of subjects,"25 mg BID, through Week 56",(7.3%)
same,Metabolism and nutrition disorders: number of subjects,"25 mg BID, through Week 56",3
same,"Neoplasms benign, malignant and unspecified (incl cysts and polyps): % of subjects","25 mg BID, through Week 56",(2.4%)
same,"Neoplasms benign, malignant and unspecified (incl cysts and polyps): number of subjects","25 mg BID, through Week 56",1
same,Nephrolithiasis: number of subjects,"25 mg BID, through Week 56",0
same,Neutropenia: number of subjects,"25 mg BID, through Week 56",0
same,Night sweats: number of subjects,"25 mg BID, through Week 56",0
same,Non-cardiac chest pain: number of subjects,"25 mg BID, through Week 56",0
same,Ocular cyst: number of subjects,"25 mg BID, through Week 56",0
same,Oedema peripheral: number of subjects,"25 mg BID, through Week 56",0
same,Oropharyngeal pain: number of subjects,"25 mg BID, through Week 56",0
same,Procedural pain: number of subjects,"25 mg BID, through Week 56",0
same,Productive cough: number of subjects,"25 mg BID, through Week 56",0
same,Proteinuria: number of subjects,"25 mg BID, through Week 56",0
same,Pruritus: number of subjects,"25 mg BID, through Week 56",0
same,Psoriasis: % of subjects,"25 mg BID, through Week 56",(2.4%)
same,Psoriasis: number of subjects,"25 mg BID, through Week 56",1
same,Psychiatric disorders: % of subjects,"25 mg BID, through Week 56",(2.4%)
same,Psychiatric disorders: number of subjects,"25 mg BID, through Week 56",1
same,Pyrexia: number of subjects,"25 mg BID, through Week 56",0
same,Rash pruritic: number of subjects,"25 mg BID, through Week 56",0
same,Renal and urinary disorders: number of subjects,"25 mg BID, through Week 56",0
same,Renal mass: number of subjects,"25 mg BID, through Week 56",0
same,"Respiratory, thoracic and mediastinal disorders: % of subjects","25 mg BID, through Week 56",(2.4%)
same,"Respiratory, thoracic and mediastinal disorders: number of subjects","25 mg BID, through Week 56",1
same,Retinal vein occlusion: number of subjects,"25 mg BID, through Week 56",0
same,Rhinorrhoea: number of subjects,"25 mg BID, through Week 56",0
same,Seasonal allergy: number of subjects,"25 mg BID, through Week 56",0
same,Skin and subcutaneous tissue disorders: % of subjects,"25 mg BID, through Week 56",(4.9%)
same,Skin and subcutaneous tissue disorders: number of subjects,"25 mg BID, through Week 56",2
same,Skin laceration: number of subjects,"25 mg BID, through Week 56",0
same,Skin papilloma: number of subjects,"25 mg BID, through Week 56",0
same,Social circumstances: number of subjects,"25 mg BID, through Week 56",0
same,Steatohepatitis: number of subjects,"25 mg BID, through Week 56",0
same,Subjects with AE leading to discontinuation: Abdominal discomfort,"25 mg BID, through Week 56",0
same,Subjects with AE leading to discontinuation: Abdominal pain,"25 mg BID, through Week 56",0
same,Subjects with AE leading to discontinuation: Alanine aminotransferase increased,"25 mg BID, through Week 56",0
same,Subjects with AE leading to discontinuation: Aspartate aminotransferase increased,"25 mg BID, through Week 56",0
same,Subjects with AE leading to discontinuation: Ear and labyrinth disorders,"25 mg BID, through Week 56",0
same,Subjects with AE leading to discontinuation: Gamma-glutamyltransferase increased,"25 mg BID, through Week 56",0
same,Subjects with AE leading to discontinuation: Investigations,"25 mg BID, through Week 56",0
same,Subjects with AE leading to discontinuation: Nausea,"25 mg BID, through Week 56",0
same,Subjects with AE leading to discontinuation: Suicide attempt,"25 mg BID, through Week 56",0
same,Subjects with AE leading to discontinuation: Transaminases increased,"25 mg BID, through Week 56",0
same,Subjects with AE leading to discontinuation: Vertigo,"25 mg BID, through Week 56",0
same,Subjects with AE leading to discontinuation: Vomiting,"25 mg BID, through Week 56",0
same,Subjects with AE leading to discontinuation: Weight increased,"25 mg BID, through Week 56",0
same,Subjects with COVID-19 associated AE: SARS-CoV-2 test positive,"25 mg BID, through Week 56",0
same,Subjects with treatment-emergent AE: Arthralgia,"25 mg BID, through Week 56",0
same,Subjects with treatment-emergent AE: Cough,"25 mg BID, through Week 56",0
same,Subjects with treatment-emergent AE: Nasopharyngitis,"25 mg BID, through Week 56",8
same,Subjects with treatment-emergent serious AE: COVID-19,"25 mg BID, through Week 56",0
same,Subjects with treatment-emergent serious AE: Cerebrovascular accident,"25 mg BID, through Week 56",0
same,Subjects with treatment-emergent serious AE: Coronary artery disease,"25 mg BID, through Week 56",0
same,Subjects with treatment-emergent serious AE: Diverticulitis,"25 mg BID, through Week 56",0
same,Subjects with treatment-emergent serious AE: Foot deformity,"25 mg BID, through Week 56",0
same,Subjects with treatment-emergent serious AE: General disorders and administration site conditions,"25 mg BID, through Week 56",0
same,Subjects with treatment-emergent serious AE: Infected cyst,"25 mg BID, through Week 56",0
same,Subjects with treatment-emergent serious AE: Infections and infestations,"25 mg BID, through Week 56",0
same,Subjects with treatment-emergent serious AE: Intervertebral disc protrusion,"25 mg BID, through Week 56",0
same,Subjects with treatment-emergent serious AE: Musculoskeletal and connective tissue disorders,"25 mg BID, through Week 56",0
same,"Subjects with treatment-emergent serious AE: Neoplasms benign, malignant and unspecified (incl cysts and polyps)","25 mg BID, through Week 56",0
same,Subjects with treatment-emergent serious AE: Nervous system disorders,"25 mg BID, through Week 56",0
same,Subjects with treatment-emergent serious AE: Non-cardiac chest pain,"25 mg BID, through Week 56",0
same,Subjects with treatment-emergent serious AE: Psychiatric disorders,"25 mg BID, through Week 56",0
same,Subjects with treatment-emergent serious AE: Suicide attempt,"25 mg BID, through Week 56",0
same,Subjects with treatment-emergent serious AE: Uterine leiomyoma,"25 mg BID, through Week 56",0
same,Suicide attempt: number of subjects,"25 mg BID, through Week 56",0
same,Sunburn: % of subjects,"25 mg BID, through Week 56",(2.4%)
same,Sunburn: number of subjects,"25 mg BID, through Week 56",1
same,Thrombocytopenia: number of subjects,"25 mg BID, through Week 56",0
same,Thrombocytosis: number of subjects,"25 mg BID, through Week 56",0
same,Tonsillar hypertrophy: % of subjects,"25 mg BID, through Week 56",(2.4%)
same,Tonsillar hypertrophy: number of subjects,"25 mg BID, through Week 56",1
same,Tooth fracture: number of subjects,"25 mg BID, through Week 56",0
same,Type 2 diabetes mellitus: number of subjects,"25 mg BID, through Week 56",0
same,Urinary tract disorder: number of subjects,"25 mg BID, through Week 56",0
same,Uterine leiomyoma: number of subjects,"25 mg BID, through Week 56",0
same,Vascular disorders: % of subjects,"25 mg BID, through Week 56",(4.9%)
same,Vascular disorders: number of subjects,"25 mg BID, through Week 56",2
same,Ventricular dysfunction: % of subjects,"25 mg BID, through Week 56",(2.4%)
same,Ventricular dysfunction: number of subjects,"25 mg BID, through Week 56",1
same,Vertigo: number of subjects,"25 mg BID, through Week 56",0
same,Vitamin D deficiency: % of subjects,"25 mg BID, through Week 56",(2.4%)
same,Vitamin D deficiency: number of subjects,"25 mg BID, through Week 56",1
same,Number of subjects with treatment-emergent AE: Cholelithiasis,[1],0
same,Number of subjects with treatment-emergent AE: Ear and labyrinth disorders,[1],1
same,Number of subjects with treatment-emergent AE: Endocrine disorders,[1],0
same,Number of subjects with treatment-emergent AE: Eye disorders,[1],0
same,Number of subjects with treatment-emergent AE: Eyelid skin dryness,[1],0
same,Number of subjects with treatment-emergent AE: Goiter,[1],0
same,Number of subjects with treatment-emergent AE: Hepatobiliary disorders,[1],0
same,Number of subjects with treatment-emergent AE: Hypertransaminasemia,[1],0
same,Number of subjects with treatment-emergent AE: Immune system disorders,[1],0
same,Number of subjects with treatment-emergent AE: Insomnia,[1],0
same,Number of subjects with treatment-emergent AE: Ocular cyst,[1],0
same,Number of subjects with treatment-emergent AE: Psychiatric disorders,[1],0
same,Number of subjects with treatment-emergent AE: Retinal vein occlusion,[1],0
same,Number of subjects with treatment-emergent AE: Seasonal allergy,[1],0
same,Number of subjects with treatment-emergent AE: Vertigo,[1],1
same,Subjects with treatment-emergent AE: Ear and labyrinth disorders (%),[1],(2.9%)
same,Subjects with treatment-emergent AE: Vertigo (%),[1],(2.9%)
same,Acrochordon: number of subjects,"25 mg QD, through Week 56",0
same,Actinic keratosis: number of subjects,"25 mg QD, through Week 56",0
same,Alopecia: % of subjects,"25 mg QD, through Week 56",(2.3%)
same,Alopecia: number of subjects,"25 mg QD, through Week 56",1
same,Asthenia: number of subjects,"25 mg QD, through Week 56",0
same,Asthma: number of subjects,"25 mg QD, through Week 56",0
same,Atrioventricular block first degree: number of subjects,"25 mg QD, through Week 56",0
same,Basal cell carcinoma: number of subjects,"25 mg QD, through Week 56",0
same,Blood and lymphatic system disorders: % of subjects,"25 mg QD, through Week 56",(2.3%)
same,Blood and lymphatic system disorders: number of subjects,"25 mg QD, through Week 56",1
same,Bronchitis chronic: number of subjects,"25 mg QD, through Week 56",0
same,Bundle branch block right: number of subjects,"25 mg QD, through Week 56",0
